Results published in US20110244049A1, “COMPOSITIONS COMPRISING 4-(2-(5-BROMO-4-(1-CYCLOPROPYLNAPHTHALEN-4-YL)-4H-1,2,4-TRIAZOL-3-YLTHIO)ACETAMIDO)-3-CHLOROBENZOIC ACID AND PHARMACEUTICALLY ACCEPTABLE SALTS THEREOF, AND METHODS FOR PREPARING AND USING SAME” (ARDEA BIOSCIENCES INC., priority 2008, published 2011).

System: serum uric acid
Test: Serum uric acid levels on day 9 of the study (Example 6)
Format: in vivo, human
Experimental: Human clinical studies using the compositions described in examples 2A, 3A, 4A, 5A were conducted as described: A multi-center, double-blind, placebo-controlled study in 48 treatment-naïve HIV-1-infected subjects, randomized 3:1 (treatment:placebo). Patients were male, 18-65 years with chronic HIV infection, but no history of AIDS-defining illness. Patients were antiretroviral treatment naïve or <14 days prior therapy and had no pre-existing RTI or PI drug resistance and no co-infection with acute HAV, chronic HBV, active HCV. Patient CD4+ cell count was ≧50 cells/mm^3 for 2 cohorts, then ≧200 cells/mm^3 or ≧350 cells/mm^3 depending on site.
The compositions were administered over a 7-day treatment period plus one morning dose for PK purposes on day 8. (It should be noted that in some instances multiple doses of the same composition were administered, in order to achieve the required total dose of compound 1; i.e.in order to achieve a dose of 400 mg compound 1, a patient may have taken four 100 mg compositions or two 200 mg compositions, depending on the dosage form.) Four sequential dose cohorts were administered as follows:
Serum uric acid levels were recorded on day 9 of the study, and are shown in the table below and graphically in FIG. 8.

## O=C(CSc1nnc(Br)n1-c1ccc(C2CC2)c2ccccc12)Nc1ccc(C(=O)O)cc1Cl [Compound 1, 4-(2-(5-bromo-4-(1-cyclopropylnaphthalen-4-yl)-4H-1,2,4-triazol-3-ylthio)acetamido)-3-chlorobenzoic acid]
400 mg BID
  Mean serum UA reduction: −30%
600 mg QD
  Mean serum UA reduction: −21%
800 mg QD
  Mean serum UA reduction: −21%
1000 mg QD
  Mean serum UA reduction: −28%
